Experimental data reported in ChEMBL document CHEMBL3232781, “Fluorinated benzophenone derivatives: balanced multipotent agents for Alzheimer's disease” (Eur J Med Chem, 2014).
Calls of active or inactive are those of the source. The calls are words filed in the database; no cut-off is given here.

Columns and labels:
[1] = target: Beta-secretase 1 (Homo sapiens) (UniProt P56817); test: Inhibition of human recombinant BACE-1 using M-2420 as substrate at 3 uM incubated for 1 hr prior to substrate addition measured after 15 mins by FRET assay relative to control
Beta-secretase 1 (Homo sapiens), sequence (P56817 whole entry): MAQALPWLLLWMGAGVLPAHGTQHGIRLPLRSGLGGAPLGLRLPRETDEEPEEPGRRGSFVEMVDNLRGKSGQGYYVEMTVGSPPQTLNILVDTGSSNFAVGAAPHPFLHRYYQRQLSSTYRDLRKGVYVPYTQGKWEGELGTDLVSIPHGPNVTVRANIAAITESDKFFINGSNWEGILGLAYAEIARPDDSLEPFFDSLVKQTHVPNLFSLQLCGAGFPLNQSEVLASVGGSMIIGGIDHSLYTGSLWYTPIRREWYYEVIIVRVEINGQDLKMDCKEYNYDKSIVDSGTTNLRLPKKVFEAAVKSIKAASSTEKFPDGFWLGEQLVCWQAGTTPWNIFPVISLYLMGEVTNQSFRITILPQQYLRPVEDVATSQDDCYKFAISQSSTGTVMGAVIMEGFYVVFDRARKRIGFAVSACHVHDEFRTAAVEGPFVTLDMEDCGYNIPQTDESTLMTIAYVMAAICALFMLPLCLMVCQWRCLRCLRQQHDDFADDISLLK

Acetylcholinesterase = Acetylcholinesterase (Homo sapiens, UniProt P22303); test: Inhibition of human recombinant AChE using acetylthiocholine iodide as substrate preincubated for 20 mins by Ellman's method
Acetylcholinesterase, sequence (P22303 whole entry): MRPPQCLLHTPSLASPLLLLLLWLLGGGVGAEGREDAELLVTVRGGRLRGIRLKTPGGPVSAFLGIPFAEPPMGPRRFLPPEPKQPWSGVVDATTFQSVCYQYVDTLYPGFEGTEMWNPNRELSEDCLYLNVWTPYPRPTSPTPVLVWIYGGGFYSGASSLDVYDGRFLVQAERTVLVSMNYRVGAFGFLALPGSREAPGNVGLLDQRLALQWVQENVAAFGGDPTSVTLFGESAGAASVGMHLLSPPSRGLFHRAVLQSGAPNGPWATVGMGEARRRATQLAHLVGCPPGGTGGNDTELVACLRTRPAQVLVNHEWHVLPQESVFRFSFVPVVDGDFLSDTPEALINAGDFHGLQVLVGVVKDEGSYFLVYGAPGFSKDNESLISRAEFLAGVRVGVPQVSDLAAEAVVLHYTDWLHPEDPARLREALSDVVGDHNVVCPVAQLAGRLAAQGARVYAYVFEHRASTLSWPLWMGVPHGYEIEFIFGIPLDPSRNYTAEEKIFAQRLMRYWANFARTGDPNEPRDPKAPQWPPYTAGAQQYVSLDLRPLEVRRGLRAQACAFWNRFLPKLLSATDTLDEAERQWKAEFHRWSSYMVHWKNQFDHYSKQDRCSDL

[2] = target: Beta-secretase 1 (Homo sapiens) (UniProt P56817); test: Inhibition of human recombinant BACE-1 using M-2420 as substrate at 3.38 uM incubated for 1 hr prior to substrate addition measured after 15 mins by FRET assay relative to control
SH-SY5Y [3] = test: Antioxidant activity in human SH-SY5Y cells assessed as inhibition of t-BuOOH-induced intracellular ROS formation at 3 to 5 uM after 30 mins by dihydroethidium-based spectrofluorometric analysis; assay type: functional, cell-based
SH-SY5Y [4] = test: Antioxidant activity in human SH-SY5Y cells assessed as inhibition of amyloid beta (25 to 35)-induced intracellular ROS formation at 3 to 5 uM after 3 hrs by dihydroethidium-based fluorescence microscopic analysis relative to control; assay type: functional
SH-SY5Y [5] = test: Neurotoxicity in human SH-SY5Y cells assessed as decrease in cell viability at 10 to 50 uM after 24 hrs by MTT assay; assay type: toxicity, cell-based
[6] = target: Beta-secretase 1 (Homo sapiens) (UniProt P56817); test: Inhibition of human recombinant BACE-1 using M-2420 as substrate up to 4 uM incubated for 1 hr prior to substrate addition measured after 15 mins by FRET assay
SH-SY5Y [7] = test: Antioxidant activity in human SH-SY5Y cells assessed as inhibition of t-BuOOH-induced intracellular ROS formation at 500 uM after 30 mins by dihydroethidium-based spectrofluorometric analysis relative to control; assay type: functional; settings: 0.5 h
SH-SY5Y [8] = test: Antioxidant activity in human SH-SY5Y cells assessed as inhibition of amyloid beta (25 to 35)-induced intracellular ROS formation at 500 uM after 3 hrs by dihydroethidium-based fluorescence microscopic analysis relative to control; assay type: functional
[9] = target: Beta-secretase 1 (Homo sapiens) (UniProt P56817); test: Inhibition of human recombinant BACE-1 using M-2420 as substrate at 5 uM incubated for 1 hr prior to substrate addition measured after 15 mins by FRET assay relative to control

CN(C)CCN(C)Cc1ccc(C(=O)c2ccc(O)c(F)c2)cc1
inhibition [1]: 13.5% | inhibition (Acetylcholinesterase): inactive

COc1ccc(C(=O)c2ccc(CN(C)Cc3ccccc3)cc2)cc1F
inhibition [2]: 10.7% | inhibition (SH-SY5Y [3]): inactive | inhibition (SH-SY5Y [4]): inactive | Activity (SH-SY5Y [5]): Non-toxic

O=C(c1ccc(CN2CCC(CCO)CC2)cc1)c1ccc(O)c(F)c1
inhibition [1]: 58.7% | IC50 (Acetylcholinesterase): 2320 nM | inhibition (SH-SY5Y [3]): Active | Imax (SH-SY5Y [4]): 30% | Activity (SH-SY5Y [5]): Non-toxic

CN1CCN(Cc2ccc(C(=O)c3ccc(O)c(F)c3)cc2)CC1
inhibition [6]: inactive | inhibition (Acetylcholinesterase): inactive

CN(CCO)Cc1ccc(C(=O)c2ccc(O)c(F)c2)cc1
inhibition [1]: 46.7% | inhibition (Acetylcholinesterase): inactive

O=C(c1ccc(CN2CCC(O)CC2)cc1)c1ccc(O)c(F)c1
inhibition [1]: 32.8% | inhibition (Acetylcholinesterase): inactive

CC(=O)N[C@@H](CS)C(=O)O [ACETYLCYSTEINE]
inhibition at 500 µM (SH-SY5Y [7]): 35% | inhibition at 500 µM (SH-SY5Y [8]): 35%

CN(Cc1ccccc1)Cc1ccc(C(=O)c2ccc(O)c(F)c2)cc1
inhibition [1]: 40.8% | IC50 (Acetylcholinesterase): 3660 nM | inhibition (SH-SY5Y [3]): Active | Imax (SH-SY5Y [4]): 30% | Activity (SH-SY5Y [5]): Toxic

Cc1ccc(C(=O)c2ccc(O)c(F)c2)cc1
inhibition [1]: 35.4% | inhibition (Acetylcholinesterase): inactive

CN(Cc1ccccc1)Cc1ccc(C(=O)c2ccc(O)cc2)cc1
inhibition [6]: inactive

CN(Cc1ccc(C(=O)c2ccc(O)c(F)c2)cc1)Cc1cccc(O)c1
inhibition [6]: inactive | inhibition (Acetylcholinesterase): inactive

O=C(c1ccc(CN2CCN(Cc3ccccc3)CC2)cc1)c1ccc(O)c(F)c1
inhibition [6]: inactive | inhibition (Acetylcholinesterase): inactive

O=C(c1ccc(CN2CCN(c3ccccc3)CC2)cc1)c1ccc(O)c(F)c1
inhibition [6]: inactive | inhibition (Acetylcholinesterase): inactive

COc1ccc(C(=O)c2ccc(CN(C)Cc3ccccc3)cc2)cc1OC
inhibition [9]: 20%

COc1ccc(C(=O)c2ccc(CN(C)Cc3ccccc3)cc2)cc1
inhibition [6]: inactive

CN(Cc1ccc(C(=O)c2ccc(O)c(F)c2)cc1)C1CCCCC1
inhibition [1]: 36.2% | inhibition (Acetylcholinesterase): inactive
